Data from ChEMBL document CHEMBL5727501, “Bicyclic compounds and their use as antibacterial agents and β-lactamase inhibitors” (2020).

Columns and labels:
[1] = (§1) Test for beta-lactamase Inhibitory Activity: he inhibitory activities of present compounds against various enzymes were measured by spectrophotometric assay using […] and using nitrocefin as a substrate [J. Antimicrob. Chemother., 28, pp 775-776 (1991)]. The concentration of inhibitor (IC50) which inhibits by 50% the reaction of hydrolysis of nitrocefin by the enzyme is determined.
[2] = as §1; remark: listed apart in the source

Which results are given for CC(=O)NNC(=O)[C@@H]1CC[C@@H]2CN1C(=O)N2OS(=O)(=O)O?
IC50 [1]: 8 nM; IC50 [2]: 91 nM
